The values that follow come from ChEMBL document CHEMBL4834464, “Fragment-based Scaffold Hopping: Identification of Potent, Selective, and Highly Soluble Bromo and Extra Terminal Domain (BET) Second Bromodomain (BD2) Inhibitors” (J Med Chem, 2021).

A short description of series [1]: Blood clearance in male Wistar Han rat measured up to 7 hrs by LC-MS/MS analysis. The format is ADME.
Series [2] in a line: Solubility of the compound in FaSSIF at pH 6.5 incubated for 16 hrs by HPLC gradient analysis. The format is physicochemical. Particulars: for solubility at 16 h: FaSSIF, pH 6.5.
A short description of series [3]: Intrinsic clearance in human hepatocytes measured per gram of tissue incubated for 120 mins by LC-MS/MS method. Particulars: 2 h. The format is ADME, cell-based, Hepatocyte.
Series [4] in a line: Distribution coefficient, logD of the compound by chromatography. The format is physicochemical. As to conditions: octanol/water.
Series [5] can be described thus: Intrinsic clearance in dog hepatocytes measured per gram of tissue by LC-MS/MS method. The format is ADME, cell-based, Canis lupus familiaris, Hepatocyte.
The nature of series [6]: Oral bioavailability in Beagle dog at 1 mg/kg measured up to 7 hrs by LC-MS/MS analysis. The format is ADME, organism-based, Canis lupus familiaris. Particulars: in vivo.
The nature of series [7]: Half life in male Wistar Han rat at 1 mg/kg, iv and 3 mg/kg, po measured up to 7 hrs by LC-MS/MS analysis. In kind it is ADME, organism-based. As to conditions: in vivo.
The nature of series [8]: Half life in Beagle dog at 0.5 mg/kg, iv and 1 mg/kg, po measured up to 7 hrs by LC-MS/MS analysis. Particulars: in vivo. The format is ADME, organism-based, Canis lupus familiaris.
Series [9] can be described thus: Volume of distribution at steady state in male Wistar Han rat at 1 mg/kg, iv and 3 mg/kg, po measured up to 7 hrs by LC-MS/MS analysis. The format is ADME, organism-based. As to conditions: in vivo, read-out: Vdss.
Series [10] in a line: Permeability of compound by AMP assay. In kind it is ADME. As to conditions: not told; read-out: permeability.
Series [11] is described as follows: Blood clearance in male Wistar Han rat at 1 mg/kg, iv and 3 mg/kg, po measured up to 7 hrs by LC-MS/MS analysis. In kind it is ADME, organism-based.
Series [12] can be described thus: Blood clearance in Beagle dog at 0.5 mg/kg, iv and 1 mg/kg, po measured up to 7 hrs by LC-MS/MS analysis. In kind it is ADME, organism-based, Canis lupus familiaris.
Series [13] in a line: Intrinsic clearance in Wistar han rat hepatocytes measured per gram of tissue incubated for 60 mins by LC-MS/MS method. In kind it is ADME, cell-based, Hepatocyte. Particulars: 1 h.
Series [14] is described as follows: Oral bioavailability in male Wistar Han rat at 3 mg/kg measured up to 7 hrs by LC-MS/MS analysis. In kind it is ADME, organism-based. Particulars: in vivo.
A short description of series [15]: Volume of distribution at steady state in Beagle dog at 0.5 mg/kg, iv and 1 mg/kg, po measured up to 7 hrs by LC-MS/MS analysis. Particulars: in vivo, read-out: Vdss. In kind it is ADME, organism-based, Canis lupus familiaris.
A short description of series [16]: Kinetic solubility of compound […] using the charged aerosol detector (CAD) analysis. In kind it is physicochemical. Particulars: read-out: Kinetic_solubility.
A short description of series [17]: Solubility of the compound by CLND assay. In kind it is physicochemical.
A short description of series [18]: Solubility of the compound in FaSSIF at pH 6.5 using crystalline form of sample incubated for 16 hrs by HPLC gradient analysis. In kind it is physicochemical.
Series [19] is described as follows: Apparent permeability across apical to basolateral side in MDCK cells. In kind it is ADME, cell-based, Canis lupus familiaris. Particulars: dog.
Series [20] is described as follows: Oral bioavailability in male Wistar Han rat measured up to 7 hrs by LC-MS/MS analysis. The format is ADME, organism-based. As to conditions: in vivo.

Each structure is given as a SMILES string. In brackets after ≈: the same amount, converted by molar mass.

Consider `CNC(=O)c1cc(C(=O)NC2CC2)cn(Cc2cccc3[nH]ccc23)c1=O`, for which, in series [1], the clearance turned out to be 128 mL/min/kg. The concentration in solution in series [2] (solubility at 16 h) was 17 µg/mL (≈ 46.7 µM). For the same compound, the CLint in series [3] came to 2.9 mL/min/g.

As to `CNC(=O)c1cc(C(=O)N[C@H]2CC[C@H](O)CC2)c([C@@H](C)c2cccc(Cl)c2)o1`, in series [4], the chromatographic logD (usually a lipophilicity value derived from retention on a column) came to 3.5. Further, the CLint in series [5] is 0.71 mL/min/g; in series [3], under 0.45 mL/min/g; in series [13], 1.5 mL/min/g. In addition, the concentration in solution in [2] (solubility at 16 h) came to 408 µg/mL (≈ 1010 µM). For the same compound, the bioavailability (usually dose-corrected exposure relative to a reference, in per cent) in series [6] amounted to 62%; in [14], 37%. In addition, the half-life (in general, how long it takes for the measured level to halve) in series [7] was 0.9 h; in [8], 3.1 h. Also, the results for the Vd in series [9] and in [15] were 2.7 L/kg and 0.9 L/kg, respectively. The Papp in [10] amounted to 15 ×10⁻⁶ cm/s. The figures for the clearance in series [11] and in series [12] were 55 mL/min/kg and 3.6 mL/min/kg, respectively. In series [16], the solubility kinetic was at least 179 µg/mL.

The compound `CNC(=O)c1cc(C(=O)N[C@H]2[C@@H]3COC[C@@H]32)c([C@@H](C)c2ccccc2)o1` showed a chromatographic logD in series [4] of 4.1. Further, the CLint is under 0.65 mL/min/g in series [5], under 0.45 mL/min/g in series [3] and under 0.8 mL/min/g in series [13]. The bioavailability in [6] and in series [14] was 100% throughout. The solubility kinetic in series [17] is at least 131 µg/mL. Besides, the half-life in series [7] is 0.7 h; in series [8], 5 h. Also, the solubility (thermodynamic) (usually the concentration in solution at equilibrium with solid) at 16 h in series [18] worked out at 980 µg/mL (≈ 2770 µM). Also, the Vd in [9] was 2.7 L/kg; in series [15], 1.1 L/kg. Moreover, in series [10], the Papp worked out at 20 ×10⁻⁶ cm/s. Moreover, the clearance in [11] worked out at 55 mL/min/kg; in series [12], 2.9 mL/min/kg.

For `CNC(=O)c1cc(C(=O)N[C@H]2[C@@H]3C[C@@H](O)C[C@@H]32)c([C@@H](C)c2ccccc2)o1`, in [4], the chromatographic logD came out at 2.8. Also, the CLint in series [5] is under 0.65 mL/min/g; in series [3] it was under 0.45 mL/min/g; in series [13] it was under 0.8 mL/min/g. In addition, the results for the bioavailability in series [6] and in series [14] were 58% and 67%, respectively. Also, in series [17], the solubility kinetic was at least 172 µg/mL. Besides, the half-life is 1.2 h in series [7] and 2.5 h in series [8]. In series [18], this compound displayed a thermodynamic solubility at 16 h of 736 µg/mL (≈ 2000 µM). The values for the Vd in series [9] and in series [15] were 2.3 L/kg and 1.1 L/kg, respectively. The Papp in series [10] came out at 4.5 ×10⁻⁶ cm/s. In addition, the clearance came to 41 mL/min/kg in series [11] and 5 mL/min/kg in series [12].

As to `CNC(=O)c1cc(C(=O)N[C@H]2[C@@H]3C[C@@H](O)C[C@@H]32)n([C@@H](C)c2ccccc2)n1`, in series [4], the chromatographic logD is 3.2. In series [17], this compound returned a solubility kinetic of at least 291 µg/mL. This compound also had a solubility (thermodynamic) at 16 h in series [18] of 101 µg/mL (≈ 274 µM). Moreover, the Papp in [10] stood at 6.1 ×10⁻⁶ cm/s.

The compound `CNC(=O)c1cc(C(=O)NCCO)c([C@@H](C)c2ccccc2)o1` had a chromatographic logD in [4] of 2.3. Moreover, the solubility kinetic in series [17] is at least 132 µg/mL. The compound further yielded a solubility (thermodynamic) at 16 h in series [18] of 925 µg/mL (≈ 2920 µM). The Papp in series [10] worked out at 3.3 ×10⁻⁶ cm/s.

With `CNC(=O)c1cc(C(=O)N[C@H]2[C@@H]3C[C@@H](OC)C[C@@H]32)n([C@@H](C)c2ccccc2)n1`, in series [4], the chromatographic logD worked out at 2.7. In addition, the solubility kinetic in series [17] was at least 150 µg/mL. Further, in series [18], the solubility (thermodynamic) at 16 h was over 1000 µg/mL. Also, the Papp in series [10] turned out to be 44 ×10⁻⁶ cm/s.

Compound `CNC(=O)c1cc(C(=O)N[C@H]2CC[C@H](OC)CC2)n([C@@H](C)c2ccccc2)n1` gave a chromatographic logD in series [4] of 4.2. Besides, the CLint was under 0.65 mL/min/g in series [5], under 0.45 mL/min/g in [3] and 1.7 mL/min/g in series [13]. The bioavailability is 95% in [6] and 80% in series [14]. The solubility kinetic in series [17] is at least 161 µg/mL. The half-life in [7] was 1 h; in [8], 4.1 h. Moreover, the solubility (thermodynamic) at 16 h in [18] worked out at 355 µg/mL (≈ 923 µM). Besides, the Vd in series [9] turned out to be 2.4 L/kg; in series [15] it was 2.1 L/kg. Further, in [10], the Papp was 36 ×10⁻⁶ cm/s. In addition, the clearance in series [11] stood at 32 mL/min/kg; in [12], 6 mL/min/kg.

Compound `CNC(=O)c1cc(C(=O)N[C@H]2CC[C@H](O)CC2)c([C@@H](C)c2ccccc2)o1` showed a chromatographic logD in series [4] of 2.8. In addition, the CLint in series [5] was under 0.7 mL/min/g; in series [3], under 0.5 mL/min/g; in series [13], 0.8 mL/min/g. In addition, the solubility (in general, how much of the substance goes into solution per volume) in [2] (simulated gi fluid, pH 6.5, 16 h) was 827 µg/mL (≈ 2230 µM). For the same compound, the values for the bioavailability in series [6] and in [14] were 84% and 72%, respectively. Also, the solubility kinetic in series [17] was at least 184 µg/mL. Also, the half-life is 1.3 h in series [7] and 5.2 h in [8]. Besides, the Vd is 2.1 L/kg in series [9] and 0.8 L/kg in [15]. Besides, in [10], the Papp came out at 4.2 ×10⁻⁶ cm/s. The clearance in [11] stood at 30 mL/min/kg; in series [12] it was 1.9 mL/min/kg. Further, the apparent permeability from apical to basolateral (Papp A→B) (usually the apparent permeability from the apical to the basolateral side of a cell layer) in [19] was determined as 4.9 ×10⁻⁶ cm/s.

Consider `CNC(=O)c1cc(C(=O)N[C@H]2CC[C@H](OC)CC2)c([C@@H](C)c2ccccc2)o1`, for which the chromatographic logD in series [4] was found to be 4.1. The solubility kinetic in series [17] is at least 192 µg/mL. In addition, in series [18], the solubility (thermodynamic) at 16 h stood at 141 µg/mL (≈ 367 µM). Further, in series [10], the Papp stood at 30.3 ×10⁻⁶ cm/s.

In the case of `CNC(=O)c1cc(C(=O)N[C@H]2[C@@H]3C[C@H](O)C[C@@H]32)n([C@@H](C)c2cccc(Cl)c2)n1`, the chromatographic logD in series [4] was 3.7. Moreover, the CLint in series [5] is 8.3 mL/min/g; in series [3], 10.8 mL/min/g; in [13], 17.3 mL/min/g. Besides, in series [2], the concentration in solution (solubility at 16 h) came to 327 µg/mL (≈ 812 µM). In addition, the Papp in [10] is 33.3 ×10⁻⁶ cm/s. In series [16], the solubility kinetic is at least 168 µg/mL.

`CCNC(=O)c1cc(C(=O)NC)oc1[C@@H](C)c1ccccc1` came in with a chromatographic logD in series [4] of 3.5. The same compound registered a solubility kinetic in series [17] of at least 148 µg/mL. Moreover, the thermodynamic solubility at 16 h in series [18] was 432 µg/mL (≈ 1440 µM). The Papp in series [10] worked out at 42 ×10⁻⁶ cm/s.

Consider `CC(=O)Nc1c(F)cc(C(=O)N[C@H]2CC[C@H](O)CC2)cc1O[C@@H](C)c1ccccc1` [GSK046], for which the clearance in series [1] was determined as 82 mL/min/kg. Besides, the chromatographic logD in series [4] stood at 2.8. In series [20], this compound returned a bioavailability of 31%. For the same compound, in series [3], the CLint came to 2.8 mL/min/g. For the same compound, the solubility kinetic in [16] was at least 159 µg/mL.

In [1], `CNC(=O)c1cc(C(=O)NC2CC2)cn(Cc2ccccc2)c1=O` [GSK620] showed a clearance of 75 mL/min/kg. Further, the solubility at 16 h in [2] stood at 13 µg/mL (≈ 40 µM). Further, in series [3], the CLint is 3.1 mL/min/g.

Compound `CNC(=O)c1cc(C(=O)N[C@H]2[C@@H]3COC[C@@H]32)cc2c1O[C@H](CF)[C@H]2c1ccccc1` [GSK973] registered a clearance in [1] of 180 mL/min/kg. In addition, the chromatographic logD in series [4] stood at 3.6. In series [20], the bioavailability turned out to be 48%. For the same compound, the Papp in series [10] worked out at 16.5 ×10⁻⁶ cm/s. The CLint in [3] came to 3.6 mL/min/g.
